Reference: ChEMBL document CHEMBL2429832, “N-substituted 8-aminopentacyclo[5.4.0.0(2,6).0(3,10).0(5,9)]undecanes as σ receptor ligands with potential neuroprotective effects” (Bioorg Med Chem, 2013)

What was measured:
[1] = target: Delta-type opioid receptor (Homo sapiens, UniProt P41143); assay: Inhibition of delta opioid receptor (unknown origin) at 10 uM by PDSP assay relative to control
[2] = target: Sigma non-opioid intracellular receptor 1 (Rattus norvegicus, UniProt Q9R0C9); assay: Displacement of [3H](+)-pentazocine from sigma-1 receptor in rat brain homogenates; assay type: tissue-based
Sigma non-opioid intracellular receptor 1, sequence (Q9R0C9 whole entry): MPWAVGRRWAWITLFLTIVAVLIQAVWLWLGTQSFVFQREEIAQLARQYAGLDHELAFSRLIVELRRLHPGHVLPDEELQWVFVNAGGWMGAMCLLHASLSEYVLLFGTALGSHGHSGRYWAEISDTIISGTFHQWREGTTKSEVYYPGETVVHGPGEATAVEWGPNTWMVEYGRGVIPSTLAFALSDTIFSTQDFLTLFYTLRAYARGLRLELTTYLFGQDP

[3] = target: 5-hydroxytryptamine receptor 1D (Homo sapiens) (UniProt P28221); assay: Inhibition of 5-HT1D receptor (unknown origin) at 10 uM by PDSP assay relative to control
5-hydroxytryptamine receptor 1D (Homo sapiens), sequence (P28221 whole entry): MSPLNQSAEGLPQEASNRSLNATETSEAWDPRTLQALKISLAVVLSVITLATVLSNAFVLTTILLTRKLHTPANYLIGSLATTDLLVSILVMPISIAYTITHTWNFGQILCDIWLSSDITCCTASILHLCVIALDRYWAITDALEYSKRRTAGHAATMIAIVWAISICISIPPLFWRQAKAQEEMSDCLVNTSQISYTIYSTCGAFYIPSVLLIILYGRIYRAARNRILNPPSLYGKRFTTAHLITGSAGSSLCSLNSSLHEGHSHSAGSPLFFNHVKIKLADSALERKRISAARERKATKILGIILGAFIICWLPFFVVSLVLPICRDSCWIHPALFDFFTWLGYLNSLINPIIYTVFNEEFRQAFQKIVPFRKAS

[4] = target: 5-hydroxytryptamine receptor 1E (Homo sapiens) (UniProt P28566); assay: Inhibition of 5-HT1E receptor (unknown origin) at 10 uM by PDSP assay relative to control
5-hydroxytryptamine receptor 1E (Homo sapiens), sequence (P28566 whole entry): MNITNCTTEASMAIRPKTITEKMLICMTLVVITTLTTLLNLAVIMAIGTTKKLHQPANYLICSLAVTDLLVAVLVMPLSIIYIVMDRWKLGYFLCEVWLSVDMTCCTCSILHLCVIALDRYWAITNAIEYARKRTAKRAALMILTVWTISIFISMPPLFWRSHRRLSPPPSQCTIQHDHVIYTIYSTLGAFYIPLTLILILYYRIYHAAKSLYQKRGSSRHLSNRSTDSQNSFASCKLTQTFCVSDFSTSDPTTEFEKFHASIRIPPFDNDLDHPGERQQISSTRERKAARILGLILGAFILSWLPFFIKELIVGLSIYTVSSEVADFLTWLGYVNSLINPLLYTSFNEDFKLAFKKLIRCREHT

Histamine H3 receptor = Histamine H3 receptor (Homo sapiens, UniProt Q9Y5N1); assay: Inhibition of histamine H3 receptor (unknown origin) at 10 uM by PDSP assay relative to control
Histamine H3 receptor, sequence (Q9Y5N1 whole entry): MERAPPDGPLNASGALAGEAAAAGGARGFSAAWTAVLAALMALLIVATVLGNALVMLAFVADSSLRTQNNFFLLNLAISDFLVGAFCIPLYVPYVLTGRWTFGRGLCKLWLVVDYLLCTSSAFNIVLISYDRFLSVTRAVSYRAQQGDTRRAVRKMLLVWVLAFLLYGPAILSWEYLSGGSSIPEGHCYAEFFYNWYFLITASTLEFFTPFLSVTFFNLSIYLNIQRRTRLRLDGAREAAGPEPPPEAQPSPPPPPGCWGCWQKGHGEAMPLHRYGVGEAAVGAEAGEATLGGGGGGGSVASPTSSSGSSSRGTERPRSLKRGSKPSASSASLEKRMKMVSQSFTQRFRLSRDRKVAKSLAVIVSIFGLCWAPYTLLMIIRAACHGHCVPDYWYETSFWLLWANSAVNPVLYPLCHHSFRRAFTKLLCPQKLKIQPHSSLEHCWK

[5] = target: T1, Alpha-1D adrenergic receptor (Homo sapiens) (UniProt P25100); assay: Inhibition of adrenergic alpha1D receptor (unknown origin) at 10 uM by PDSP assay relative to control
T1 sequence (whole entry): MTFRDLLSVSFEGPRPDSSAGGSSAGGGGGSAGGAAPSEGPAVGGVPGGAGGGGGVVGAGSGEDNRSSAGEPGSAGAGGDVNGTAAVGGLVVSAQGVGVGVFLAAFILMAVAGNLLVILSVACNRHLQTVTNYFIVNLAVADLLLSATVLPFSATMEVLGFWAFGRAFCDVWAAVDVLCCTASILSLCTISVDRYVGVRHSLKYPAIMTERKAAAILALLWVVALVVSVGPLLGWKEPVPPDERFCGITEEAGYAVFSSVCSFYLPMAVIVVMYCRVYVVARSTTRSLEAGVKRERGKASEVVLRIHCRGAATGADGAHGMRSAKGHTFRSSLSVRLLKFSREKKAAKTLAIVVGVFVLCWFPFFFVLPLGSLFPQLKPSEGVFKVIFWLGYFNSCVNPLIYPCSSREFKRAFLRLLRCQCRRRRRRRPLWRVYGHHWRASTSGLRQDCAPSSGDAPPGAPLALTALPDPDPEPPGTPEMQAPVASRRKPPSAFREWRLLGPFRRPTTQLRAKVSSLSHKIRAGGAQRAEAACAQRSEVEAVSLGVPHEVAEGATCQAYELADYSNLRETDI

[6] = target: Beta-2 adrenergic receptor (Homo sapiens) (UniProt P07550); assay: Inhibition of adrenergic beta2 receptor (unknown origin) at 10 uM by PDSP assay relative to control
Beta-2 adrenergic receptor (Homo sapiens), sequence (P07550 whole entry, looked up): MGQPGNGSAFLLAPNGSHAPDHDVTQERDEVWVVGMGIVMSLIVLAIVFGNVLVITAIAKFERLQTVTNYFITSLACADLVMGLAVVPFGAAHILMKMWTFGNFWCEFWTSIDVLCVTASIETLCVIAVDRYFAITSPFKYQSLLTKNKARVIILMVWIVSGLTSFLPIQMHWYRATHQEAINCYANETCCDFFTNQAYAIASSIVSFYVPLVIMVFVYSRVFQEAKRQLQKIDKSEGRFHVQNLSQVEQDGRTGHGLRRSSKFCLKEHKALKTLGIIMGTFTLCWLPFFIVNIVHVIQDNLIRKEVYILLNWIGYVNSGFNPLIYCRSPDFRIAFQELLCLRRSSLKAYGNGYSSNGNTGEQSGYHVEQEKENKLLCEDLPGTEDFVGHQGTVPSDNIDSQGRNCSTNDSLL

[7] = target: 5-hydroxytryptamine receptor 1B (Homo sapiens, UniProt P28222); assay: Inhibition of 5-HT1B receptor (unknown origin) at 10 uM by PDSP assay relative to control
5-hydroxytryptamine receptor 1B, sequence (P28222 whole entry): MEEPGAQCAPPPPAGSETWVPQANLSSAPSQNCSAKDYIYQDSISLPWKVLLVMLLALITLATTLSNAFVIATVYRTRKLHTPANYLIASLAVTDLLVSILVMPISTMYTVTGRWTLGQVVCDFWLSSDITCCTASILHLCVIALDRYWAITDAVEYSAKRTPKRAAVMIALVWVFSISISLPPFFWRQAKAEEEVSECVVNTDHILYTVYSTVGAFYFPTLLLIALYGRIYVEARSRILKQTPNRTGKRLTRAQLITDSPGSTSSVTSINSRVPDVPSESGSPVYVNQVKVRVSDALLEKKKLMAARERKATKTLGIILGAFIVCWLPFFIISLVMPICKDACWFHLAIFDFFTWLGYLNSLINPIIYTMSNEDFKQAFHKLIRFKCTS

[8] = target: T2, 5-hydroxytryptamine receptor 3A (Homo sapiens) (UniProt P46098); assay: Inhibition of 5-HT3 receptor (unknown origin) at 10 uM by PDSP assay relative to control
T2 sequence (whole entry): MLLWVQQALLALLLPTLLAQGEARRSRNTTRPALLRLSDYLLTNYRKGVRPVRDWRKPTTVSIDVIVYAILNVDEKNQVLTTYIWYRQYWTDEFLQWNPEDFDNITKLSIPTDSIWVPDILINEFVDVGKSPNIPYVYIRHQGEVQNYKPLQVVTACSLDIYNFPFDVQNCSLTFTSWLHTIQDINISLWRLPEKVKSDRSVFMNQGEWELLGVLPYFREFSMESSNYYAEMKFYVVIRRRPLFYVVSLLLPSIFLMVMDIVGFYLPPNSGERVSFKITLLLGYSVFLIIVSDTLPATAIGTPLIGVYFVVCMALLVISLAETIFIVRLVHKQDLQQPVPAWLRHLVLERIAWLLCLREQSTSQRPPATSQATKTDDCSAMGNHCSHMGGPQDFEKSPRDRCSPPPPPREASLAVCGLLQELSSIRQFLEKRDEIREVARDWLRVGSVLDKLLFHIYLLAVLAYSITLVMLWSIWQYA

[9] = target: 5-hydroxytryptamine receptor 6 (Homo sapiens, UniProt P50406); assay: Inhibition of 5-HT6 receptor (unknown origin) at 10 uM by PDSP assay relative to control
5-hydroxytryptamine receptor 6, sequence (P50406 whole entry): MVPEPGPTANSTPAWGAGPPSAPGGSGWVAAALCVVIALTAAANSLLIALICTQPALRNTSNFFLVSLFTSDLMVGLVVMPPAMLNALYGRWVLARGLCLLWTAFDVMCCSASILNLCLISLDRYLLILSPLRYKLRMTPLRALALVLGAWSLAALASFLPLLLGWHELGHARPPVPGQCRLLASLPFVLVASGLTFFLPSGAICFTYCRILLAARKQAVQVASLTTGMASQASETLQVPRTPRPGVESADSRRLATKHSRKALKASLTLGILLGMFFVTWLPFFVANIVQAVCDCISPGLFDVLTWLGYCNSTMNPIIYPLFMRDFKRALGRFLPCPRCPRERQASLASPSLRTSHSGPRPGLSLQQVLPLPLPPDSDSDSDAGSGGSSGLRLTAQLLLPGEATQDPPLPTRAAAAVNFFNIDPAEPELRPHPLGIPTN

[10] = target: T3, 5-hydroxytryptamine receptor 2C (Homo sapiens) (UniProt P28335); assay: Inhibition of 5-HT2C receptor (unknown origin) at 10 uM by PDSP assay relative to control
T3 sequence (whole entry): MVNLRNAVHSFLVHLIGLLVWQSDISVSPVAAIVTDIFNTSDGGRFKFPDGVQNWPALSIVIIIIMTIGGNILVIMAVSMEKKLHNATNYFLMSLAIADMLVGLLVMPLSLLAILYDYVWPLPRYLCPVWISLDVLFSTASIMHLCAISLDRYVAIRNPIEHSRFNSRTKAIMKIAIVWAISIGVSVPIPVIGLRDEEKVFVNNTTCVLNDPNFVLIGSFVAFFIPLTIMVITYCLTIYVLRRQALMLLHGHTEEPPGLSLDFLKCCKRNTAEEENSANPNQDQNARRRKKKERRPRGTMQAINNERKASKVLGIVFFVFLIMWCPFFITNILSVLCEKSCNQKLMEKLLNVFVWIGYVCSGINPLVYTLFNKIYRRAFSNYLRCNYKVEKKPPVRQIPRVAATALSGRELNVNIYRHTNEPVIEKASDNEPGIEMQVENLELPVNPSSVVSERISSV

[11] = target: Beta-1 adrenergic receptor (Homo sapiens) (UniProt P08588); assay: Inhibition of adrenergic beta1 receptor (unknown origin) at 10 uM by PDSP assay relative to control
Beta-1 adrenergic receptor (Homo sapiens), sequence (P08588 whole entry, looked up): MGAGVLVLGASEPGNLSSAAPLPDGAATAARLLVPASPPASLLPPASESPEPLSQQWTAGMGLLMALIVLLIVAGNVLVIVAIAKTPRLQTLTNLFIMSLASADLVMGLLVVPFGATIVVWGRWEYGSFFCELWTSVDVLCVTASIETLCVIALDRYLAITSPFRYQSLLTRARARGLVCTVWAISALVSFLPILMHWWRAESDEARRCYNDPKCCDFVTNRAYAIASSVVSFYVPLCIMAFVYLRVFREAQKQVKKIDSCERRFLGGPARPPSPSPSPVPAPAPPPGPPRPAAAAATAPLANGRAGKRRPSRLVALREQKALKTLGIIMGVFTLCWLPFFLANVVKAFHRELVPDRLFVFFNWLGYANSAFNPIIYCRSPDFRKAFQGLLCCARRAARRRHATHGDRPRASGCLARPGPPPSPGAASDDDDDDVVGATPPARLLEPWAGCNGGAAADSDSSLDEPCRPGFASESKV

[12] = target: 5-hydroxytryptamine receptor 5A (Homo sapiens, UniProt P47898); assay: Inhibition of 5-HT5A receptor (unknown origin) at 10 uM by PDSP assay relative to control
5-hydroxytryptamine receptor 5A, sequence (P47898 whole entry): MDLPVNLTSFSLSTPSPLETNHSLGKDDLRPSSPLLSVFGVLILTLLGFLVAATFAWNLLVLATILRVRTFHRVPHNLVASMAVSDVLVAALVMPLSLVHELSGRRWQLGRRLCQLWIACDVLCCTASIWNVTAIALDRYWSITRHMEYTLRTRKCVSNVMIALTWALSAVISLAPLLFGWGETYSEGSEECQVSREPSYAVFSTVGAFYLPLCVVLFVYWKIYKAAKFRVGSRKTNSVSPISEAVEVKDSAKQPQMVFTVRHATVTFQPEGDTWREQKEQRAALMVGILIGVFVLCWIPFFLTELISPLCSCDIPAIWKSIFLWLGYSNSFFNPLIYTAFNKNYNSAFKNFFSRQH

[13] = target: 5-hydroxytryptamine receptor 7 (Homo sapiens, UniProt P34969); assay: Inhibition of 5-HT7 receptor (unknown origin) at 10 uM by PDSP assay relative to control
5-hydroxytryptamine receptor 7, sequence (P34969 whole entry): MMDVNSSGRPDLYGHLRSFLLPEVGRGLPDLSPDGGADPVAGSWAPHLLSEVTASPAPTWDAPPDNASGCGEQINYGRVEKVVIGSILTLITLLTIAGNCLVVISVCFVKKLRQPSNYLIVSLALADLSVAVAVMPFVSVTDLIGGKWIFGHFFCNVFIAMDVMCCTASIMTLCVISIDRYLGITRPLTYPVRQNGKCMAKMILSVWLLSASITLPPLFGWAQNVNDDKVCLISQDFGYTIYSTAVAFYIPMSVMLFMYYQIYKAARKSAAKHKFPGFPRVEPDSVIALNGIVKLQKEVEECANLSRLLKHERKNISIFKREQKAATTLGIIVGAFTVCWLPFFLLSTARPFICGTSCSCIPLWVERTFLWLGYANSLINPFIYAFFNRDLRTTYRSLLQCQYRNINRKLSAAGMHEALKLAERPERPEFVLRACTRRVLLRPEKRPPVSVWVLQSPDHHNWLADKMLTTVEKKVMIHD

[14] = Displacement of [3H]-DTG from sigma-2 receptor in rat PC12 cells; assay type: cell-based; details: pc-12
[15] = target: T4, 5-hydroxytryptamine receptor 1A (Homo sapiens) (UniProt P08908); assay: Inhibition of 5-HT1A receptor (unknown origin) at 10 uM by PDSP assay relative to control
T4 sequence (whole entry): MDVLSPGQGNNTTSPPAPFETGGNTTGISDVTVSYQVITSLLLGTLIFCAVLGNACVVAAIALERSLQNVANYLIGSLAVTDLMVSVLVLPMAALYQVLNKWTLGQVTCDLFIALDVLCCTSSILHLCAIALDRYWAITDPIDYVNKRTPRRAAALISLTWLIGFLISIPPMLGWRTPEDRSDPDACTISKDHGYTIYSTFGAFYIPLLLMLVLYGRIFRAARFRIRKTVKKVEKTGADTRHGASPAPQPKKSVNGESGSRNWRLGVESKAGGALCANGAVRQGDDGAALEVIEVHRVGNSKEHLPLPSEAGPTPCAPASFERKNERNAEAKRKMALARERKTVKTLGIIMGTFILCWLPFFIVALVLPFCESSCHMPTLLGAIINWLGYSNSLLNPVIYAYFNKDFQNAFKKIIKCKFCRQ

Delta-type opioid receptor, sequence (P41143 whole entry): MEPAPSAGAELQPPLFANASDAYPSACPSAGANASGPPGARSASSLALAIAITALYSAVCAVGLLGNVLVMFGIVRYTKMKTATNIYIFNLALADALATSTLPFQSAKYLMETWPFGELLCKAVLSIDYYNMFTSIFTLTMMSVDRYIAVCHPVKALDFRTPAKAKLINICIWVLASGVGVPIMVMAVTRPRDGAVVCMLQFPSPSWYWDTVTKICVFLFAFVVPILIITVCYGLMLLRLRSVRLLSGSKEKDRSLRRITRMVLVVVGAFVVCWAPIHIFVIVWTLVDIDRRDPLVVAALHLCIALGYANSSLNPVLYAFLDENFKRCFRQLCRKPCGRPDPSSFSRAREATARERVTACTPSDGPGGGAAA

| Compound | inhibition [1] | Ki [2] | inhibition [3] | inhibition [4] | inhibition (Histamine H3 receptor) | inhibition [5] | inhibition [6] | inhibition [7] | inhibition [8] | inhibition [9] | inhibition [10] | inhibition [11] | inhibition [12] | inhibition [13] | Ki [14] | inhibition [15] |
| --- | --- | --- | --- | --- | --- | --- | --- | --- | --- | --- | --- | --- | --- | --- | --- | --- |
| CN(Cc1cccc(F)c1)[C@H]1C2C3CC4C2C(=O)C2C4C3C21 (stereo not given in full) | < 50% | 303 nM | < 50% | < 50% | < 50% | < 50% | < 50% | < 50% | < 50% | < 50% | < 50% | < 50% | < 50% | < 50% | 168 nM | – |
| CN(CCc1ccccn1)[C@H]1C2C3CC4C5C3CC2C5C41 (stereo not given in full) | – | 448 nM | < 50% | < 50% | < 50% | < 50% | < 50% | < 50% | < 50% | < 50% | < 50% | < 50% | < 50% | < 50% | 32 nM | < 50% |
| COc1ccc(CN[C@H]2C3C4CC5C6C4CC3C6C52)cc1OC (stereo not given in full) | < 50% | 94 nM | < 50% | < 50% | < 50% | < 50% | < 50% | < 50% | < 50% | – | < 50% | < 50% | < 50% | < 50% | 25 nM | < 50% |
| c1cc2c(cc1CN[C@H]1C3C4CC5C6C4CC3C6C51)OCO2 (stereo not given in full) | < 50% | 17 nM | < 50% | < 50% | < 50% | < 50% | < 50% | < 50% | < 50% | < 50% | < 50% | < 50% | – | < 50% | 15 nM | < 50% |
| c1ccc(CCN[C@H]2C3C4CC5C6C4CC3C6C52)cc1 (stereo not given in full) | < 50% | 49 nM | < 50% | < 50% | < 50% | < 50% | < 50% | – | < 50% | < 50% | < 50% | < 50% | < 50% | < 50% | 9.3 nM | < 50% |
| c1ccc(CCN[C@H]2C3C4CC5C6C4CC3C6C52)nc1 (stereo not given in full) | < 50% | 21.5 nM | < 50% | < 50% | < 50% | < 50% | < 50% | < 50% | < 50% | – | < 50% | < 50% | < 50% | < 50% | 8.6 nM | < 50% |
| CN(CCc1ccccc1)[C@H]1C2C3CC4C5C3CC2C5C41 (stereo not given in full) | < 50% | 773 nM | < 50% | < 50% | < 50% | < 50% | < 50% | < 50% | < 50% | < 50% | < 50% | < 50% | < 50% | – | 16 nM | < 50% |
| C1C2C3CC4C2C2C1C3[C@H](NCC13C5C6C7C5C1C7C63)C42 (stereo not given in full) | < 50% | 3 nM | < 50% | < 50% | < 50% | < 50% | < 50% | < 50% | < 50% | < 50% | < 50% | < 50% | – | < 50% | 2 nM | < 50% |
